From patent US20040005623A1, “Method of determining tumor sensitivities to therapeutic drugs” (priority 2002, published 2004)

Legend:
[1] = biological target: KIT expressed by HMC1 (Homo sapiens, UniProt P10721, V560G); conditions: has been reported; cited from earlier work
[2] = biological target: T1, wild-type KIT (Homo sapiens, UniProt P10721); conditions: has been reported; cited from earlier work
Target sequence in this assay (P10721 26-976, species assumed): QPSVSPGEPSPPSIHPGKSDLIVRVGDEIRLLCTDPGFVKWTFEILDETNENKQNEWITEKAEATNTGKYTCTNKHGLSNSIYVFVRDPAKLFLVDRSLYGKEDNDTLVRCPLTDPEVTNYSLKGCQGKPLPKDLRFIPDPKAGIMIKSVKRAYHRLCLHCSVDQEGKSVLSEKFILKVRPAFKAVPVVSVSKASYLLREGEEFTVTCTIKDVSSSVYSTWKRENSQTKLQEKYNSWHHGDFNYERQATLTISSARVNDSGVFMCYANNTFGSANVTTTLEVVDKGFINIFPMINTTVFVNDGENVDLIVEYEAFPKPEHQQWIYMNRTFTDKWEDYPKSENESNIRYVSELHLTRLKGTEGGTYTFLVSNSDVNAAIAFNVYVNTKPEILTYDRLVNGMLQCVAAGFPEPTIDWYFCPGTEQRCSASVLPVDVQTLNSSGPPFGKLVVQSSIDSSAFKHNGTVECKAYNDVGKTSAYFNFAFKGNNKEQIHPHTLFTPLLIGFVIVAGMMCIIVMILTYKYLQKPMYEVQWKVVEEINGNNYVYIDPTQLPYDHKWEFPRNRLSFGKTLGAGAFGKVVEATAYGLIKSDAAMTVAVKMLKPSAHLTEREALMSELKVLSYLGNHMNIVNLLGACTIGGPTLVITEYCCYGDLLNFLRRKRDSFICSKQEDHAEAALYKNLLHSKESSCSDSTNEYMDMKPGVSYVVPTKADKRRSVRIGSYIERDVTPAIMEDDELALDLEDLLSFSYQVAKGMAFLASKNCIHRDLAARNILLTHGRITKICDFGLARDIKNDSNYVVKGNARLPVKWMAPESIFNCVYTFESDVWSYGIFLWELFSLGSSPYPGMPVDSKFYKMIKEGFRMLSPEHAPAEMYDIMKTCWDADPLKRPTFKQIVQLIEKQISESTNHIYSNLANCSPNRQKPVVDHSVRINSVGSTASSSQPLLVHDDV

[3] = biological target: T1, wild-type KIT; assay: SCF-induced phosphorylation of wild-type KIT transiently expressed in COS cells (antiphosphotyrosine blot); type: cell-based; set-up: expressed in transfected cells; host or cells: COS cells; conditions: inhibitor at 0.1 to 1 μM, 1 hour, FIG. 1 lanes 3-4
Source text: (§1) Two subclones of the human mast cell leukemia line HMC1 were used to determine if the wild type and mutant KIT enzymes were able to interact with 2 drug compounds, […] and SU9529. Set forth as SEQ ID NO:1 is a nucleotide sequence for the wild type KIT enzyme (amino acid sequence is set forth as SEQ ID NO:2). One subclone, HMC1.1, expressed a valine to glycine substitution in codon 560 (Val560Gly) of the KIT intracellular juxtamembrane region. The other, HMC1.2, expressed the Val560Gly mutation and a second substitution, aspartate to valine in codon 816 (Asp816Val) in the kinase enzymatic pocket. […] For additional study of wild type and specific mutant forms of KIT, COS cells were used for transient expression of human wild-type and mutated c-KIT complementary DNAs, as described previously by Ma et al., “Inhibition of spontaneous receptor phosphorylation by residues in putatitive α-helix in the KIT intracellular juxtamembrane region,” J. Biol. Chem., 274:13399-13402 (1999). ST1571 is a commercially available drug manufactured by Novartis and developed as an inhibitor of the c-abl gene product. ST1571 has been reported to inhibit wild-type KIT and KIT expressed by HMC1. The other compound, SU9529, is manufactured by SUGEN and has not yet been made commercially available, although it has been published. […]
Target sequence in this assay (P10721 26-976): as the sequence (P10721 26-976, species assumed) above

[4] = system: HMC1 line; conditions: at 1 μM; cited from earlier work
[5] = biological target: T2, KIT Val560Gly juxtamembrane regulatory type mutant (Homo sapiens, UniProt P10721, V560G); assay: SCF-independent constitutive phosphorylation of Val560Gly mutant KIT expressed in COS cells; type: cell-based; conditions: inhibitor at 0.1 to 1 μM, FIG. 1 lanes 6-7
T2 construct: expressed in transfected cells; host or cells: COS cells
Source text: as §1

T2 sequence (P10721 26-976 V560G): as the sequence (P10721 26-976, species assumed) above, with V535G counted along it
Chain of KIT expressed by HMC1 (P10721 26-976 V560G): as the sequence (P10721 26-976, species assumed) above, with V535G counted along it

inhibition of SCF-induced phosphorylation of wild-type KIT [3]: prevent the phosphorylation | inhibition of SCF-independent constitutive phosphorylation of Val560Gly KIT [5]: inhibit
Compound: Cc1ccc(NC(=O)c2ccc(CN3CCN(C)CC3)cc2)cc1Nc1nccc(-c2cccnc2)n1 [ST1571]
reported inhibition of KIT expressed by HMC1 [1]: inhibit | reported inhibition of wild-type KIT [2]: inhibit | previously reported ability to kill an HMC1 line [4]: kill
